The numbers were not newly measured in patent US20040019115A1, “Use of milnacipran for the treatment of tension-type headache” (priority 2002, published 2004), which cites them from elsewhere.

For the data set the following is noted: patients with chronic tension-type headache, prophylactic treatment.

Consider `CN(C)CCC=C1c2ccccc2CCc2ccccc21` [Amitriptyline], for which the reduction of headache is given as 30%.
